Literature values, collected in patent publication US20180228757A1, “EDIBLE PARTICLES COMPRISING A POLYSACCHARIDE AND A LIPID” (PERORA GMBH, priority 2015, published 2018).

Conditions: infusion into the duodenum by means of a feeding tube

Row | SMILES | satiety signalling
1 | CCCCCCCCCCCC(=O)O [lauric acid] | strong satiety signalling
2 | CCCCCCCC/C=C\CCCCCCCC(=O)O [oleic acid] | strong satiety signalling
